Results from patent publication US20070128589A1, “Substrates, sensors, and methods for assessing conditions in females” (priority 2005, published 2007).
No end group written: not given here.

Tests used:
[1] = test system: Lactobacillus sp. protease; test: GFP-random amino acid sequence-polyhistidine peptide library screen, GFP-peptide released from beads by Lactobacillus supernatant; assay type: biochemical, Lactobacillus acidophilus; settings: plate number 69, exposed to Lactobacillus, FIG. 9
Procedure: (§1) The samples were then incubated with beads that bind the epitope tag (e.g., 10 μl of NTA-resin to bind a polyhistidine tag or 10 μl of methotrexate agarose to bind the FolA tag). The sample was then placed into a microtiter filtration plate and washed three times to remove the unbound proteins. The fluorescent signal of the third wash was measured in a fluorescent microplate reader at an excitation of 355 nm and an emission of 510 nm (for GFP). Alternatively, the HRP activity can be measured in a microplate colorimeter at 405 nm with H2O2 and ABTS substrate. This background reading from the third rinse can later be subtracted from the signal of the released GFP (or HRP) peptides by extracellular bacterial proteases. […]
(§2) The plates can be filtered by centrifugation three times with PBS to remove unbound material and then the GFP-peptide-bound bead can be incubated with microbial extract for 20 min at 37° C. The sample can be filtered and the flow through fluorescence can be compared with the background from the prior wash. If the microbe has a protease that finds the ideal target, then the release of GFP fluorescence from the bead can be over 100 times greater than the background.
(§3) Fluorescence can be measured on a Fluoroskan II instrument with an excitation filter centered at 380 nm and emission filter centered at 538 nm. […]

[2] = test system: Candida albicans
Procedure: For example, in one embodiment, the H2 peptide was conjugated to Blue dye #1 as a reporter on the C-terminal end. The N-terminal end was conjugated to Affigel 10 beads (BioRad). The beads were exposed to an aliquot of overnight grown Candida albicans for a period of 24 hours at 37° C. A control set of beads was also exposed to culture medium. Blue dye released from the beads by the action of Candida albicans was collected on a membrane to produce a clear signal.
Food grade sensors can be used in consumer products. […] The resulting beads were incubated with growth medium (1:2 BHI/PBS) alone (control) and an overnight grow-up of Candida albicans for 24 hours at 37° C. […] The preferred ion exchange membranes to collect the free dye are SB6407 and Biodyne B (Pall Life Sciences, Ann Arbor, Mich. and positively charged PVDF (Millipore)). These membranes have strong positively-charged quaternary ammonium groups.
In one example, dye-conjugated Affigel 10 beads were exposed to Candida albicans supernatant (20 μl of 1:10 dilution of beads) or a medium control (1:2 BHI/PBS) for 24 hours. The color was collected with a positively charged membrane (SB6407) in with the bead reaction.

[3] = test system: C. albicans clinical isolates; settings: for reaction with ten clinical C. albicans isolates (released HRP): HRP-peptide-Affigel conjugate, cell-free growth medium, ten minutes, FIG. 24; for sensitivity: all ten clinical isolates
Procedure: For example, ten clinical C. albicans isolates kindly provided by Dr. Andrew Onderdonk (Brigham and Women's Hospital) were tested alongside a strain obtained from C. albicans ATCC. The yeast cells were grown in YCB-BSA (23.4 g yeast carbon base, 2 g yeast extract, 10 g dextrose, and 5 g of BSA per liter—adjusted to pH 5.0). An aliquot of the cell-free growth medium was mixed with an HRP-peptide-Affigel conjugate for ten minutes and the amount of released HRP was determined.

[4] = test system: Gardnerella vaginalis, Lactobacillus acidophilus, and Escherichia coli; test: HRP-peptide-Affigel conjugates: initial specificity study with other vaginal bacteria; assay type: biochemical
[5] = test system: C. albicans; test: Identification of peptide targets for C. albicans; assay type: biochemical, Candida albicans
Procedure: Clones of green fluorescent protein (GFP) tagged conjugates were used to identify targets in a high throughput screen. Each clone contained a plasmid harboring a gene that contains a polyhistidine tag (6 his), 30 random nucleotides (corresponding to 10 random amino acids), and green fluorescent protein (GFP). On the day before a screen, 864 glowing clones are grown up overnight at 37° C. in deep well microtiter plates (1 ml/well). In the morning, the cultures can be induced with 1 mM IPTG for 1 hour, the cells can be centrifuged for five minutes, and then the media can be decanted. Lysozyme (2 mg/ml) can be added and the cells can be flash frozen 3 times. The samples can be treated with 100 ul/well of DNAse I at 37° C. for 30 minutes to reduce the viscosity by digesting the DNA. An aliquot of the sample can then be transferred to a microtiter filter plate containing 10 μl of nickel-NTA resin. The pipeting of the reagents (IPTG, lysozyme, DNAse I, and beads) can be performed with a Tecan Genesis RSP 100 Robot with Gemini version 4.0 software.
as §2
(SEQ ID NO: 8), the sequence QKTTIKKLKH (H2) (SEQ ID NO: 9), the sequence KPKAFLKVGN (R8) (SEQ ID NO: 6), the sequence TPIQIHTILH (SEQ ID NO: 10), the sequence […] (SEQ ID NO: 11), the sequence […] (SEQ ID NO: 12), and the sequence […] (SEQ ID NO: 13).

[6] = test system: proteases produced by Trichomonas vaginalis; test: High throughput screening of GFP-random peptide fusion library with Trichomonas vaginalis cell-free growth medium; assay type: biochemical; settings: 4,900 clones screened, LYI entamoeba medium
Procedure: Peptide substrates for proteases produced by the vaginal pathogen Trichomonas vaginalis were also identified. This microbe was grown in LYI entamoeba medium overnight and the cell-free growth medium was used in the high throughput screening of 4,900 clones from a GFP-random peptide fusion library.
Peptides 39H9 and 42D3 were altered to remove the lysine residues prior to peptide synthesis. The peptides were conjugated to HRP and affigel 10 beads and produced a visible color signal in five minutes at 650 nm when an aliquot of the protease-treated product was incubated with tetramethyl benzidine.

[7] = target: HSV protein UL26 (Human herpesvirus 1, UniProt P10210); settings: cited from earlier work
HSV protein UL26, sequence (P10210 whole entry): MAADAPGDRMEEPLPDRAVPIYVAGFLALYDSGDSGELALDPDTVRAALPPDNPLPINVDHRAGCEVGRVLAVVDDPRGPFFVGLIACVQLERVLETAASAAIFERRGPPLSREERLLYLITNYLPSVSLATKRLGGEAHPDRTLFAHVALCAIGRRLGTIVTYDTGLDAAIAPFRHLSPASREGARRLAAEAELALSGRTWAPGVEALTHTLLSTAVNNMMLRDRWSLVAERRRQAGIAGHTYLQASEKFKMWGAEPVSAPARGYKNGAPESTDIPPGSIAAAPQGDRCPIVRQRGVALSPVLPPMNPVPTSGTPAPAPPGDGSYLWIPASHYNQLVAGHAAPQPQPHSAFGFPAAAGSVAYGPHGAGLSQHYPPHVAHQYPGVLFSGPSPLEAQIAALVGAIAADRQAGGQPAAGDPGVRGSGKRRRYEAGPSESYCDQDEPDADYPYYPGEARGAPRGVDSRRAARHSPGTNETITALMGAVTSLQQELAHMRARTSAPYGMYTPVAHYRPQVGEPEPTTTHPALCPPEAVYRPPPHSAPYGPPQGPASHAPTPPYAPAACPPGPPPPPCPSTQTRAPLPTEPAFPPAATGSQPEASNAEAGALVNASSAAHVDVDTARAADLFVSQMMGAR

[8] = test system: Gardnerella vaginalis; test: GFP-random amino acid sequence-polyhistidine peptide library screen with Gardnerella extracts; assay type: biochemical; settings: plate 76, FIG. 10
Procedure: as §1, §2, §3

Row | Substance | identified as peptide target for C. albicans [5] | identified as peptide detecting Trichomonas vaginalis [6] | also measured
1 | 69/B8 (PFINETYAKFC; Peptide Substrate of Gardnerella vaginalis) | – | – | signal strength (GFP-peptide released from the beads) [1]: 62.8
2 | QRTTIRRLRH [modified H2 peptide] | – | – | time to visible blue dye release ([2]; collection of color in a feminine pad): approximately 3 hours
3 | KPKAFLKVGN (also: histidine tag) [R8, C. albicans peptide; used as H2N-…-OH with histidine tag for immobilization] | peptide targets for C. albicans | – | reaction with ten clinical C. albicans isolates (released HRP) [3]: reacted strongly; sensitivity [3]: 100%; clipping by other vaginal bacteria [4]: not significantly clipped
4 | INLSKKQIYP (Peptide Substrate of Candida spp.) [peptide target for C. albicans] | peptide targets for C. albicans | – | –
5 | NKTNKTKHAY (Peptide Substrate of Trichomonas vaginalis) [42H8/T7, peptide detecting Trichomonas vaginalis] | – | detect Trichomonas vaginalis | –
6 | KNPKLQDHYI (Peptide Substrate of Trichomonas vaginalis) [44B5/T7, peptide detecting Trichomonas vaginalis] | – | detect Trichomonas vaginalis | –
7 | KPSIKPTPPY (Peptide Substrate of Candida spp.) [peptide target for C. albicans] | peptide targets for C. albicans | – | –
8 | NNPLPKIQKN (Peptide Substrate of Trichomonas vaginalis) [38H9/T7, peptide detecting Trichomonas vaginalis] | – | detect Trichomonas vaginalis | –
9 | QINKALKQPK (Peptide Substrate of Trichomonas vaginalis) [41El 1/T7, peptide detecting Trichomonas vaginalis] | – | detect Trichomonas vaginalis | –
10 | LYPSQNPVIK (Peptide Substrate of Candida spp.) [peptide target for C. albicans] | peptide targets for C. albicans | – | –
11 | QKTTIKKLKH (also: HRP or Blue dye #1 Affigel conjugate) [H2] | peptide targets for C. albicans | – | reaction with ten clinical C. albicans isolates (released HRP) [3]: reacted strongly; sensitivity [3]: 100%; clipping by other vaginal bacteria [4]: not significantly clipped; blue dye released from beads / peptide hydrolysis, color collected on membrane ([2]; overnight grown Candida albicans, 24 hours at 37° C., no signal from control medium): highly visible blue color
12 | ASNAEAGALVNASSAAHVDV | – | – | cleavage site [7]: between the 12th amino acid (alanine) and the 13th amino acid (serine); specificity of UL26 for the sequence [7]: strong specificity
13 | SKQQDIIKKY (Peptide Substrate of Trichomonas vaginalis) [44E6/T7, peptide detecting Trichomonas vaginalis] | – | detect Trichomonas vaginalis | –
14 | 76/C3 (ITTTSSKHEHC; Peptide Substrate of Lactobacillus acidophilus) | – | – | fluorescence after exposure to Gardnerella extracts [8]: strong fluorescence
15 | QIPKSLHPIT (Peptide Substrate of Trichomonas vaginalis) [42D3/T7, peptide detecting Trichomonas vaginalis] | – | detect Trichomonas vaginalis | –
16 | NITKKSTKII (Peptide Substrate of Candida spp.) [peptide target for C. albicans] | peptide targets for C. albicans | – | –
17 | LHNYVLLRNIL (Peptide Substrate of Trichomonas vaginalis) [38H8/T7, peptide detecting Trichomonas vaginalis] | – | detect Trichomonas vaginalis | –
